According to PubChem BioAssay AID1259407 (Chemical Carcinogenesis Research Information System (CCRIS), 2018):
Active and inactive are the calls of the source. How the calls were made is not given here.

Tested on: CCRIS mutagenicity, Ames/micronucleus/aberration tests
Assay: CCRIS mutagenicity studies
[1] = Test System: AMES SALMONELLA TYPHIMURIUM, Strain/Indicator: TA98, Metabolic Activation: NONE, Method: STANDARD PLATE
[2] = Test System: AMES SALMONELLA TYPHIMURIUM, Strain/Indicator: TA100, Metabolic Activation: NONE, Method: STANDARD PLATE

C[C@]12CC[C@H](OC(=O)COc3ccc(N(CCCl)CCCl)cc3)C[C@@H]1CC[C@@H]1[C@@H]2CC[C@]2(C)NC(=O)CC[C@@H]12
mutagenic call [1]: inactive; negative | mutagenic call (Test System: AMES SALMONELLA TYPHIMURIUM, Strain/Indicator: TA98, Metabolic Activation: RAT, LIVER, S-9, AROCLOR 1254, Method: STANDARD PLATE): inactive; negative | mutagenic call [2]: active; positive | mutagenic call (Test System: AMES SALMONELLA TYPHIMURIUM, Strain/Indicator: TA100, Metabolic Activation: RAT, LIVER, S-9, AROCLOR 1254, Method: STANDARD PLATE): active; positive | mutagenic call (Test System: AMES SALMONELLA TYPHIMURIUM, Strain/Indicator: TA1535, Metabolic Activation: NONE, Method: STANDARD PLATE): active; positive | mutagenic call (Test System: AMES SALMONELLA TYPHIMURIUM, Strain/Indicator: TA1535, Metabolic Activation: RAT, LIVER, S-9, AROCLOR 1254, Method: STANDARD PLATE): active; positive | mutagenic call (Test System: AMES SALMONELLA TYPHIMURIUM, Strain/Indicator: TA1535, Metabolic Activation: S-9, Method: STANDARD PLATE): active; positive | mutagenic call (Test System: AMES SALMONELLA TYPHIMURIUM, Strain/Indicator: TA1537, Metabolic Activation: NONE, Method: STANDARD PLATE): inactive; negative | mutagenic call (Test System: AMES SALMONELLA TYPHIMURIUM, Strain/Indicator: TA1537, Metabolic Activation: RAT, LIVER, S-9, AROCLOR 1254, Method: STANDARD PLATE): inactive; negative | mutagenic call (Test System: AMES SALMONELLA TYPHIMURIUM, Strain/Indicator: TA1537, Metabolic Activation: S-9, Method: STANDARD PLATE): inactive; negative

[B-]
mutagenic call (Test System: AMES SALMONELLA TYPHIMURIUM, Strain/Indicator: TA98, Metabolic Activation: NONE, Method: PREINCUBATION): inactive; negative | mutagenic call (Test System: AMES SALMONELLA TYPHIMURIUM, Strain/Indicator: TA98, Metabolic Activation: RAT LIVER S-9, PHENOBARBITAL AND BETA-NAPHTHOFLAVONE, Method: PREINCUBATION): inactive; negative | mutagenic call (Test System: AMES SALMONELLA TYPHIMURIUM, Strain/Indicator: TA100, Metabolic Activation: NONE, Method: PREINCUBATION): inactive; negative | mutagenic call (Test System: AMES SALMONELLA TYPHIMURIUM, Strain/Indicator: TA100, Metabolic Activation: RAT LIVER S-9, PHENOBARBITAL AND BETA-NAPHTHOFLAVONE, Method: PREINCUBATION): inactive; negative | mutagenic call (Test System: AMES SALMONELLA TYPHIMURIUM, Strain/Indicator: TA1535, Metabolic Activation: NONE, Method: PREINCUBATION): inactive; negative | mutagenic call (Test System: AMES SALMONELLA TYPHIMURIUM, Strain/Indicator: TA1535, Metabolic Activation: RAT LIVER S-9, PHENOBARBITAL AND BETA-NAPHTHOFLAVONE, Method: PREINCUBATION): inactive; negative | mutagenic call (Test System: AMES SALMONELLA TYPHIMURIUM, Strain/Indicator: TA1537, Metabolic Activation: NONE, Method: PREINCUBATION): inactive; negative | mutagenic call (Test System: AMES SALMONELLA TYPHIMURIUM, Strain/Indicator: TA1537, Metabolic Activation: RAT LIVER S-9, PHENOBARBITAL AND BETA-NAPHTHOFLAVONE, Method: PREINCUBATION): inactive; negative | mutagenic call (Test System: AMES SALMONELLA TYPHIMURIUM, Strain/Indicator: TA1538, Metabolic Activation: NONE, Method: PREINCUBATION): inactive; negative | mutagenic call (Test System: AMES SALMONELLA TYPHIMURIUM, Strain/Indicator: TA1538, Metabolic Activation: RAT LIVER S-9, PHENOBARBITAL AND BETA-NAPHTHOFLAVONE, Method: PREINCUBATION): inactive; negative | mutagenic call (Test System: E.COLI, Strain/Indicator: WP2UVRA, Metabolic Activation: NONE, Method: PREINCUBATION): inactive; negative | mutagenic call (Test System: E.COLI, Strain/Indicator: WP2UVRA, Metabolic Activation: RAT LIVER S-9, PHENOBARBITAL AND BETA-NAPHTHOFLAVONE, Method: PREINCUBATION): inactive; negative

Cn1c2ccccc2c2nn[n+]([O-])c(C(=O)OCCCl)c21
mutagenic call (Test System: AMES SALMONELLA TYPHIMURIUM, Strain/Indicator: TA97, Metabolic Activation: NONE, Method: STANDARD PLATE): active; positive | mutagenic call (Test System: AMES SALMONELLA TYPHIMURIUM, Strain/Indicator: TA97, Metabolic Activation: RAT, LIVER, S-9, AROCLOR 1254 (4%, 10%), Method: STANDARD PLATE): active; positive | mutagenic call [1]: active; positive | mutagenic call (Test System: AMES SALMONELLA TYPHIMURIUM, Strain/Indicator: TA98, Metabolic Activation: RAT, LIVER, S-9, AROCLOR 1254 (4%, 10%), Method: STANDARD PLATE): active; positive | mutagenic call [2]: inactive; negative | mutagenic call (Test System: AMES SALMONELLA TYPHIMURIUM, Strain/Indicator: TA100, Metabolic Activation: RAT, LIVER, S-9, AROCLOR 1254 (4%, 10%), Method: STANDARD PLATE): inactive; negative | mutagenic call (Test System: AMES SALMONELLA TYPHIMURIUM, Strain/Indicator: TA102, Metabolic Activation: NONE, Method: STANDARD PLATE): inactive; negative | mutagenic call (Test System: AMES SALMONELLA TYPHIMURIUM, Strain/Indicator: TA102, Metabolic Activation: RAT, LIVER, S-9, AROCLOR 1254 (4%, 10%), Method: STANDARD PLATE): inactive; negative

O=P(O)(O)OC(CO)CO
mutagenic call (Test System: AMES SALMONELLA TYPHIMURIUM, Strain/Indicator: TA97, Metabolic Activation: NONE, Method: PREINCUBATION): inactive; negative | mutagenic call (Test System: AMES SALMONELLA TYPHIMURIUM, Strain/Indicator: TA97, Metabolic Activation: RAT, LIVER, S-9, AROCLOR 1254, Method: PREINCUBATION): inactive; negative | mutagenic call (Test System: AMES SALMONELLA TYPHIMURIUM, Strain/Indicator: TA102, Metabolic Activation: NONE, Method: PREINCUBATION): inactive; negative | mutagenic call (Test System: AMES SALMONELLA TYPHIMURIUM, Strain/Indicator: TA102, Metabolic Activation: RAT, LIVER, S-9, AROCLOR 1254, Method: PREINCUBATION): inactive; negative

CC1(C)CC(C(N)=O)C(C)(C)N1[O] (stereo not drawn)
mutagenic call [2]: inactive; negative

C=C(C)C1Cc2c(cc(O)c3c(=O)c4ccccc4n(C)c23)O1 (stereo not drawn)
mutagenic call [1]: inactive; negative | mutagenic call (Test System: AMES SALMONELLA TYPHIMURIUM, Strain/Indicator: TA98, Metabolic Activation: RAT, LIVER, S-9, 3-METHYLCHOLANTHRENE, Method: STANDARD PLATE): active; positive | mutagenic call (Test System: AMES SALMONELLA TYPHIMURIUM, Strain/Indicator: TA98, Metabolic Activation: RAT, LIVER, S-9, PHENOBARBITAL, Method: STANDARD PLATE): active; positive | mutagenic call (Test System: AMES SALMONELLA TYPHIMURIUM, Strain/Indicator: TA98, Metabolic Activation: RAT, LIVER, S-9, Method: STANDARD PLATE): active; positive | mutagenic call [2]: inactive; negative | mutagenic call (Test System: AMES SALMONELLA TYPHIMURIUM, Strain/Indicator: TA100, Metabolic Activation: RAT, LIVER, S-9, 3-METHYLCHOLANTHRENE, Method: STANDARD PLATE): active; positive | mutagenic call (Test System: AMES SALMONELLA TYPHIMURIUM, Strain/Indicator: TA100, Metabolic Activation: RAT, LIVER, S-9, PHENOBARBITAL, Method: STANDARD PLATE): active; positive | mutagenic call (Test System: AMES SALMONELLA TYPHIMURIUM, Strain/Indicator: TA100, Metabolic Activation: RAT, LIVER, S-9, Method: STANDARD PLATE): active; positive
